# Data reported in patent US8822468B2 (Novartis AG, priority 2008, dated 2014).
# Target: T1, cMET receptor tyrosine kinase (GST-cMET (969-1390)) (Homo sapiens, UniProt P08581)
# T1 construct: made in house
# Assay: EPK cMET profiling assay (LanthaScreen TR-FRET antibody based kinase phosphorylation assay)
# Type: biochemical
# Conditions: purified recombinant GST-cMET (969-1390), 2 μM ATP, 50 nM Fluorescein-PolyEAY, 60 minutes at room temperature; read-out: c-Met IC50
# Experimental: A number of compounds of the present invention were assayed in an antibody based kinase phosphorylation assay as follows.
# EPK cMET Profiling Assay:
# The EPK kinase assay for cMET receptor tyrosine kinase was developed, using the purified recombinant GST-fusion protein, containing the cytoplasmic domain of the enzyme. GST-cMET (969-1390) was purified by affinity chromatography.
# The kinase assay is based on the LanthaScreen™ technology. LanthaScreen™ is the detection of Time-Resolved Fluorescence Resonance Energy Transfer (TR-FRET) using lanthanide chelates to measure interactions between various binding partners. In a TR-FRET kinase assay, a long-lifetime lanthanide donor species is conjugated to an antibody that specifically binds to a phosphorylated product of a kinase reaction that is labeled with a suitable acceptor fluorophore. This antibody-mediated interaction brings the lanthanide donor and the acceptor into proximity such that resonance energy transfer can take place, resulting in a detectible increase in the FRET signal.
# The kinase reactions were performed in 384 well microtiter plates in a total reaction volume of 9.05 μL. The assay plates were prepared with 0.05 μL per well of test compound in the appropriate test concentration, as described under “preparation of compound dilutions”. The reactions were started by combining 4.5 μL of ATP solution with 4.5 μL of enzyme-substrate mix (consisting of kinase and substrate). The final concentrations in the kinase reactions were 35 mM Tris/HCl, 1 mM DTT, 0.025% Tween20, 10 μM sodium orthovanadate, 0.25% BSA, 0.6% DMSO, 10 mM MgCl2, 3 mM MnCl2, 2 μM ATP, 50 nM Fluorescein-PolyEAY, and 0.3 nM enzyme.
# The reactions were incubated for 60 minutes at room temperature and stopped by adding 4.5 μL of stop buffer (50 mM EDTA, 0.04% NP40, 20 mM Tris/HCl).
# Subsequently 4.5 μL of detection mix (50 mM Tris/HCl, 2 mM DTT, 0.05% Tween20, 20 μM sodium orthovanadate, 1% BSA, 1.72 μg/ml Tb-PY20 antibody) were added to the stopped reactions. After 30 minutes incubation at room temperature, the plates were measured in a BMG Pherastar fluorescence reader. The effect of compound on the enzymatic activity was in all assays obtained from the linear progress curves and determined from one reading (end point measurement).
# Test compounds were dissolved in DMSO (10 mM) and transferred into 1.4 mL flat bottom or V-shaped Matrix tubes carrying a unique 2D matrix. The stock solutions were stored at −20° C. if not used immediately. For the test procedure the vials were defrosted and identified by a scanner whereby a working sheet was generated that guided the subsequent working steps.
# Compound dilutions were made in 96 well plates. This format enabled the assay of maximally 40 individual test compounds at 8 concentrations (single points) including 4 reference compounds. The dilution protocol included the production of “pre-dilution plates”, “master plates” and “assay plates”.
# Pre-dilution plates: 96 polypropylene well plates were used as pre-dilution plates. A total of 4 pre-dilution plates were prepared including 10 test compounds each on the plate positions A1-A10, one standard compound at A11 and one DMSO control at A12. All dilution steps were done on a HamiltonSTAR robot.
# Master plates: 100 μL of individual compound dilutions including standard compound and controls of the 4 “pre-dilution plates” were transferred into a 384 “master plate” including the following concentrations 1,820, […], 182, 54.6, 18.2, 5.46, 1.82 and 0.546 μM, respectively in 90% of DMSO.
# Assay plates: Identical “assay plates” were then prepared by pipetting 50 nL each of compound dilutions of the “master plates” into 384-well “assay plates” by means of a HummingBird 384-channel dispenser. These plates were used directly for the assay which was performed in a total volume of 9.05 μL. This led to a final compound concentration of 10, 3.0, 1.0, 0.3, 0.1, 0.03, 0.01 and 0.003 μM and a final DMSO concentration of 0.5% in the assay.
# T1 sequence (P08581 969-1390): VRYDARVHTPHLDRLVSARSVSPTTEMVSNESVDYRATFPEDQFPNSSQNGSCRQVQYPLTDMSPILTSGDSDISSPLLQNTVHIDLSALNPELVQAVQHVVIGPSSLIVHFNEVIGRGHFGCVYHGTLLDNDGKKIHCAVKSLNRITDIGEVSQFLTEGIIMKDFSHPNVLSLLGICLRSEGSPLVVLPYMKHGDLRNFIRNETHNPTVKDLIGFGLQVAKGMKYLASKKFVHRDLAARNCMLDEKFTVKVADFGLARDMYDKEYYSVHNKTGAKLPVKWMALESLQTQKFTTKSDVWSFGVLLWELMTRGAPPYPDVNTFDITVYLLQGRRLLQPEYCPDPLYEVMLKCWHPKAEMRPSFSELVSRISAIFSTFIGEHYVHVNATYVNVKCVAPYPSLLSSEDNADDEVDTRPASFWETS
row,SMILES,IC50 [nM]
1,"Cn1cc(-c2ccc3ncc(C(O)c4ccc5ncccc5c4)n3n2)cn1 (racemic) [Example 1, (rac)-[6-(1-Methyl-1H-pyrazol-4-yl)-imidazo[1,2-b]pyridazin-3-yl]-quinolin-6-yl-methanol]",140
2,"COc1ccc(C(O)c2cnc3ccc(-c4cnn(C)c4)nn23)cc1 (racemic) [Example 3, (rac)-(4-Methoxy-phenyl)-[6-(1-methyl-1H-pyrazol-4-yl)-imidazo[1,2-b]pyridazin-3-yl]-methanol]",3950
3,"Cn1cc(-c2ccc3ncc(C(O)c4ccc5nccn5c4)n3n2)cn1 (racemic) [Example 9, (rac)-Imidazo[1,2-a]pyridin-6-yl-[6-(1-methyl-1H-pyrazol-4-yl)-imidazo[1,2-b]pyridazin-3-yl]-methanol]",170
4,"Cn1cc(-c2ccc3ncc(C(O)c4ccc5nccnc5c4)n3n2)cn1 (racemic) [Example 11, (rac)-[6-(1-Methyl-1H-pyrazol-4-yl)-imidazo[1,2-b]pyridazin-3-yl]-quinoxalin-6-yl-methanol]",910
5,"CC(C)CNc1ccc2ncc(C(O)c3ccc4ncccc4c3)n2n1 (racemic) [Example 77, (rac)-(6-Isobutylamino-imidazo[1,2-b]pyridazin-3-yl)-quinolin-6-yl-methanol]",225
6,"CN(C(=O)OC(C)(C)C)C1CCN(c2ccc3ncc(Cc4ccc5ncccc5c4)n3n2)C1 (racemic) [Example 87, Methyl-[1-(3-quinolin-6-ylmethyl-imidazo[1,2-b]pyridazin-6-yl)-pyrrolidin-3-yl]-carbamic acid tert-butyl ester]",370
7,"CNC1CCN(c2ccc3ncc(Cc4ccc5ncccc5c4)n3n2)C1 (racemic) [Example 119, (rac)-Methyl-[1-(3-quinolin-6-ylmethyl-imidazo[1,2-b]pyridazin-6-yl)-pyrrolidin-3-yl]-amine]",42
8,"CC(c1ccc2c(c1)CCCN2)c1cnc2ccc(-c3cnn(C)c3)nn12 (racemic) [Example 156, (rac)-6-{1-[6-(1-Methyl-1H-pyrazol-4-yl)-imidazo[1,2-b]pyridazin-3-yl]-ethyl}-1,2,3,4-tetrahydroquinoline]",190
9,"CC(c1ccc2ncccc2c1)c1cnc2ccc(-c3cnn(C)c3)nn12 (racemic) [Example 157, (rac)-6-{1-[6-(1-Methyl-1H-pyrazol-4-yl)-imidazo[1,2-b]pyridazin-3-yl]-ethyl}-quinoline]",7
10,"CC(c1cc2cn[nH]c2cc1F)c1cnc2ccc(-c3cnn(C)c3)nn12 (racemic) [Example 164, (rac)-3-[1-(6-Fluoro-1H-indazol-5-yl)-ethyl]-6-(1-methyl-1H-pyrazol-4-yl)-imidazo[1,2-b]pyridazine]",54
11,"Cn1cc(-c2ccc3ncc(C(C)(O)c4cc5cccnc5cc4F)n3n2)cn1 (racemic) [Example 174, (rac)-1-(7-Fluoro-quinolin-6-yl)-1-[6-(1-methyl-1H-pyrazol-4-yl)-imidazo[1,2-b]pyridazin-3-yl]-ethanol]",120
12,"CC(c1ccc2ncccc2c1)c1cnc2ccc(-c3cnn(CCO)c3)nn12 (racemic) [Example 177, (rac)-2-{4-[3-(1-Quinolin-6-yl-ethyl)-imidazo[1,2-b]pyridazin-6-yl]-pyrazol-1-yl}-ethanol]",20
13,"CC(c1c(F)cc2ncccc2c1F)c1cnc2ccc(-c3cnn(CCO)c3)nn12 (racemic) [Example 182, (rac)-2-(4-{3-[1-(5,7-Difluoro-quinolin-6-yl)-ethyl]-imidazo[1,2-b]pyridazin-6-yl}-pyrazol-1-yl)ethanol]",3
14,"CC(c1ccc2ncn(C)c2c1)c1cnc2ccc(-c3cnn(CCO)c3)nn12 (racemic) [Example 185, (rac)-2-(4-{3-[1-(3-Methyl-3H-benzoimidazol-5-yl)-ethyl]-imidazo[1,2-b]pyridazin-6-yl}-pyrazol-1-yl)-ethanol]",56
15,"CC(c1ccc2ncccc2c1Cl)c1cnc2ccc(-c3cnn(CCO)c3)nn12 (racemic) [Example 188, (rac)-2-(4-{3-[1-(5-Chloro-quinolin-6-yl)-ethyl]-imidazo[1,2-b]pyridazin-6-yl}-pyrazol-1-yl)ethanol]",5.6
16,"CC(c1ccc2nccn2c1)c1cnc2ccc(-c3cnn(CCO)c3)nn12 (racemic) [Example 189, (rac)-2-{4-[3-(1-Imidazo[1,2-a]pyridin-6-yl-ethyl)-imidazo[1,2-b]pyridazin-6-yl]-pyrazol-1-yl}-ethanol]",95
17,"CC(c1ccc2n[nH]cc2c1)c1cnc2ccc(-c3cnn(CCO)c3)nn12 (racemic) [Example 190, (rac)-2-(4-{3-[1-(2H-Indazol-5-yl)-ethyl]-imidazo[1,2-b]pyridazin-6-yl}-pyrazol-1-yl)-ethanol]",56
18,"CC(c1c(F)cc2ncccc2c1F)c1cnc2ccc(-c3cnn(C)c3)nn12 (racemic) [Example 191, (rac)-5,7-Difluoro-6-{1-[6-(1-methyl-1H-pyrazol-4-yl)-imidazo[1,2-b]pyridazin-3-yl]-ethyl}-quinoline]",< 3
19,"CC(c1ccc2ncn(C)c2c1)c1cnc2ccc(-c3cnn(C)c3)nn12 (racemic) [Example 206, (rac)-3-[1-(3-Methyl-3H-benzoimidazol-5-yl)-ethyl]-6-(1-methyl-1H-pyrazol-4-yl)-imidazo[1,2-b]pyridazine]",31
20,"CC(c1ccc2ncn(CCN3CCCC3)c2c1)c1cnc2ccc(-c3cnn(C)c3)nn12 (racemic) [Example 207, (rac)-6-(1-Methyl-1H-pyrazol-4-yl)-3-{1-[3-(2-pyrrolidin-1-yl-ethyl)-3H-benzoimidazol-5-yl]-ethyl}-imidazo[1,2-b]pyridazine]",310
21,"CC(c1ccc(O)cc1)c1cnc2ccc(-c3cnn(CCO)c3)nn12 (racemic) [Example 221, (rac)-4-(1-{6-[1-(2-Hydroxy-ethyl)-1H-pyrazol-4-yl]-imidazo[1,2-b]pyridazin-3-yl}-ethyl)-phenol]",240
22,"CC(c1ccc(O)cc1)c1cnc2ccc(-c3cnn(C)c3)nn12 (racemic) [Example 222, (rac)-4-{1-[6-(1-Methyl-1H-pyrazol-4-yl)-imidazo[1,2-b]pyridazin-3-yl]-ethyl}-phenol]",250
23,"CC(c1ccc2ncccc2c1Cl)c1cnc2ccc(-c3cnn(C4CCNCC4)c3)nn12 (racemic) [Example 223, (rac)-5-Chloro-6-{1-[6-(1-piperidin-4-yl-1H-pyrazol-4-yl)-imidazo[1,2-b]pyridazin-3-yl]-ethyl}-quinoline]",33
24,"CC(c1ccc2ncccc2c1Cl)c1cnc2ccc(-c3cnn(C)c3)nn12 (racemic) [Example 225, (rac)-5-Chloro-6-{1-[6-(1-methyl-1H-pyrazol-4-yl)-imidazo[1,2-b]pyridazin-3-yl]-ethyl}-quinoline]",25
25,"Cn1cc(-c2ccc3ncc(C(O)c4ccc5ncn(C)c5c4)n3n2)cn1 (racemic) [Example 229, (rac)-(3-Methyl-3H-benzoimidazol-5-yl)-[6-(1-methyl-1H-pyrazol-4-yl)-imidazo[1,2-b]pyridazin-3-yl]-methanol]",520
26,"Cn1cc(-c2ccc3ncc(C(O)c4ccc5ncccc5c4F)n3n2)cn1 (racemic) [Example 247, (rac)-(5-Fluoro-quinolin-6-yl)-[6-(1-methyl-1H-pyrazol-4-yl)-imidazo[1,2-b]pyridazin-3-yl]-methanol]",66
